Article PMC11460631, “Inhibition of transient receptor potential vanilloid 3 channels by antimalarial hydroxychloroquine alleviates TRPV3-dependent dermatitis” (The Journal of Biological Chemistry, 2024)
One block for each molecule: values may come before it.

Assays:
TRPV3 [1] = biological target: T1, TRPV3 (Homo sapiens, UniProt Q8NET8); experiment: Whole-cell patch-clamp recordings of TRPV3 currents in transfected HEK293T cells; format: cell-based; settings: 1 mM agonist, whole-cell, n = 5 cells
T1 construct: YFP or GFP; expressed in transfected cells; host or cells: HEK293T
T1 sequence (Q8NET8 1-790): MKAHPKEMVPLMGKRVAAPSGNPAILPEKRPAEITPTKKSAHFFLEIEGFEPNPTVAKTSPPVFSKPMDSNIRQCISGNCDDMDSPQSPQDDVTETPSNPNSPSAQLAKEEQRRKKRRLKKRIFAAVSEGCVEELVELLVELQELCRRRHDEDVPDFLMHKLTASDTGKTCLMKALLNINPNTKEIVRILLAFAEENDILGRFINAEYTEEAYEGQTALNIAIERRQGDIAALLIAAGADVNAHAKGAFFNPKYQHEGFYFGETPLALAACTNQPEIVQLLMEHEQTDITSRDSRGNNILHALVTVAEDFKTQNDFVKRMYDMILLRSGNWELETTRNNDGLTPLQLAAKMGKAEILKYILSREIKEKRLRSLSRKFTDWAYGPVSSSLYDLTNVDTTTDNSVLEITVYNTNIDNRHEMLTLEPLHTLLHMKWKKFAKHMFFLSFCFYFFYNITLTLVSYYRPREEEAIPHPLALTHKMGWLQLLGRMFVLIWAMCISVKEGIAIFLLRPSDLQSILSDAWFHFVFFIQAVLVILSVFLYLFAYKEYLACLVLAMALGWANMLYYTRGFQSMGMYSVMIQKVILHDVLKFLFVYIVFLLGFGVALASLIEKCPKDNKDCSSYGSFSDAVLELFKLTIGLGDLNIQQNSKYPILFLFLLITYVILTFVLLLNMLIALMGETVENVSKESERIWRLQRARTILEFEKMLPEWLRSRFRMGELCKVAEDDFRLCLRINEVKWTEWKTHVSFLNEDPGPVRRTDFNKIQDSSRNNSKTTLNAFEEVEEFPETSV
Procedure: (§1) HEK293T cells are cultured using Dulbecco's modified Eagle's medium containing 10% fetal bovine serum and 1% penicillin-streptomycin in a cell incubator with 5% CO2 at 37 °C. Plasmids of murine TRPV1, TRPV4, TRPM8, and human TRPV3, TRPA1 are labeled with YFP or GFP as indicators for subsequent electrophysiological recordings. Complementary DNA constructs of ion channels were transiently transfected with Lipofectamine 3000 (Invitrogen). And 12 to 18 h after transient transfection, electrophysiological recordings were performed.
(§2) Patch-clamp recordings were carried out with a HEKA EPC10 amplifier controlled by PatchMaster software (HEKA; https://www.heka.com/products/products_main.html#soft_pm) ([36]). Patch pipettes were prepared from borosilicate glass and fire-polished to the resistance of 3 to 8 MΩ by P-97 puller for whole-cell recordings. For single-channel recordings, patch pipettes were fire-polished to a higher resistance of 6 to 10 MΩ. Both bath solution and pipette solution contained 130 mM NaCl, 10 mM glucose, 0.2 mM EDTA, and 3 mM Hepes and were adjusted to pH 7.2 to 7.4 with NaOH. Whole-cell recordings and single-channel recordings were performed at ± 80 mV. The current was sampled at 10 kHz and filtered at 2.9 kHz. All recordings were performed at room temperature (25 °C). A gravity-driven system (RSC-200, Bio-Logic) with freely rotated perfusion tubes was used for the perfusion of ligands. Bath and ligand solutions were delivered through separate tubes to minimize the mixing of solutions. Patch pipette holding cells were placed in front of the perfusion tube outlet for perfusion.
All data from whole-cell recordings were analyzed in Igor Pro (WaveMetrics). IC50 values were determined by fitting the Hill equation to concentration-response relationships. Data are shown as mean ± SEM. Statistical significance between two groups was conducted with an unpaired two-tailed t test, and statistical significance among multiple groups was conducted with one-way ANOVA using Dunnett’s multiple comparisons test or Tukey's post hoc test. Differences were regarded as statistically significant with ∗, p < 0.05; ∗∗, p < 0.01; ∗∗∗, p < 0.001; ∗∗∗∗, and p < 0.0001; N.S., no significance.

TRPV3 [2] = biological target: T1, TRPV3; experiment: Calcium imaging (Fluo-4/AM) of TRPV3-expressing HEK293T cells; format: cell-based
Procedure: as §1
Calcium imaging assays were performed as described previously ([37]). Transiently transfected HEK293 cells seeded on 25 mm coverslips were washed twice with an extracellular solution containing 140 mM NaCl, 5 mM KCl, 2 mM MgCl2, 2 mM CaCl2, 10 mM glucose, and 10 mM Hepes (pH 7.4), followed by incubation in 2 ml of extracellular solution supplemented with 2 μM Fluo-4/AM as a Molecular Probes at room temperature for 60 min. Fluorescence images of HEK293T cells were acquired with a Nikon Eclipse Ti2 microscope with an optiMOS charge-coupled device camera controlled by the Ocular Software ([…]; https://www.photometrics.com/products/ocular).

TRPV3 [3] = biological target: T1, TRPV3; experiment: Single-channel recordings of TRPV3 in the inside-out configuration; format: cell-based; settings: 1 mM 2-APB alone, −80 mV
Procedure: as §1
as §2, with “perfusion. Igor Pro versions 5.05 and 9.05 (WaveMetrics; https://www.wavemetrics.com/products/igorpro) were used to analyze the data.” for “perfusion.”

C57BL/6J male mice = experiment: Carvacrol-induced AD-like mouse model: skin appearance scores and H&E epidermal thickness; format: in vivo; settings: score of 0 to 4, topical, 5 days; for erythema score: 2% carvacrol alone or with HCQ 2 mg/ml or DXM 1 mg/ml
Procedure: (§3) We therefore generated a carvacrol-induced AD mouse model to test the effect of HCQ.
To investigate the effect of HCQ on carvacrol-induced dermatitis in animals, C57BL/6J male mice (aged 6 weeks) were obtained from the Animal Experimental Center of Hangzhou Medical College (Hangzhou, Zhejiang Province). Mice were housed and maintained in an environment with a 12-h light/dark cycle and a controlled temperature of 22.0 ± 2.0 °C. Food and water were accessible ad libitum. All the animal procedures were approved by the Institutional Animal Care & Use Committee of Zhejiang Center of Laboratory Animals (ZJCLA).
(§4) To generate an AD-like mice model, 2% carvacrol (dissolved in 30% ethanol solution) was topically smeared onto the mice dorsum 1 day after hair removal with a depilatory cream (Vetin Depilatory Cream). Mice received a topical administration of an equal volume (200 μl) of 2% carvacrol or in the presence of 2 mg/ml HCQ. […] After the application of carvacrol for 5 days, the external appearance of mice was photographed and then sampled. The external appearance was graded based on three aspects: thickness, erythema/bleeding, and dryness/desquamation, with severity assessed on a score of 0 to 4. The degree of thickness was measured by the thickness of the skin in H&E staining. Skin tissues were either fixed in 4% paraformaldehyde or placed in PBS buffer containing 1% protease inhibitor, facilitating subsequent steps of paraffin embedding or ELISA experiments.
Mice were sacrificed 24 h after the last dose of treatment. Mouse dorsal skin was removed with scissors and forceps before being fixed with 4% paraformaldehyde. Paraffin-embedded tissues were sectioned and stained with H&E. Pictures of stained sections were acquired with a Nikon Eclipse Ti-S microscope with a charge-coupled device camera (DS-Ri2, Nikon).

[4] = tested on: TNF-α, IL-6, IgE, IL-4 in mouse dorsal skin tissues; experiment: Carvacrol-induced AD-like mouse model: inflammatory factors by ELISA; format: in vivo
Procedure: as §3, §4
Animal skin tissues were placed in PBS buffer containing 1% protease inhibitors, then homogenized, and centrifuged for supernatants. Cytokine concentrations of supernatants (IL-4, IL-6, TNF-α, and IgE) were measured using ELISA kits (Tsingke) according to the manufacturer's instructions. The absorption at 450 nm was measured by a microplate reader (Thermo Multiskan MK3).

[5] = DXM 1 mg/ml topical with 2% carvacrol

wash-off time constant of TRPV3 current (TRPV3 [1]): 4.05 ± 0.73 s
calcium influx, area under the curve (AUC) of 2-APB activation (TRPV3 [2]; 1 mM 2-APB alone): 22.92 ± 1.44
TRPV3 channel open probability (Po) (TRPV3 [3]): 0.89 ± 0.06
single-channel conductance (TRPV3 [3]): 90.69 ± 2.67 pS
Compound: NCCOB(c1ccccc1)c1ccccc1 [2-APB, 2-aminoethoxydiphenylborate]

Compound: Cc1ccc(C(C)C)cc1O [carvacrol]
wash-off time constant of TRPV3 current (TRPV3 [1]): 1.43 ± 0.38 s
dry desquamation score (C57BL/6J male mice; 2% carvacrol alone or with HCQ 2 mg/ml): 3.17 ± 0.31
erythema score (C57BL/6J male mice): 3.67 ± 0.21

Compound: C[C@H](CCC(=O)O)C[C@H](C)C[C@H](C)C(=O)/C=C(\O)[C@H](C)C[C@H](C)C/C=C/[C@@H](C)[C@@H](O)[C@@H](C)[C@@H](O)C[C@@H]1CC[C@@](C)([C@H]2CC[C@@](C)([C@@H](C)O)O2)O1 [ionomycin]
calcium influx, area under the curve (AUC), positive control (TRPV3 [2]; 10 μM ionomycin): 41.59 ± 1.50

Compound: C[C@@H]1C[C@H]2[C@@H]3CCC4=CC(=O)C=C[C@]4(C)[C@@]3(F)[C@@H](O)C[C@]2(C)[C@@]1(O)C(=O)CO [DXM, dexamethasone]
erythema score (C57BL/6J male mice): 2.83 ± 0.17
effect on IL-6 and TNF-α [4, 5]: no significant effect
effect on serum IgE levels [4, 5]: reduces
IL-4 levels compared to the model group ([4]; mouse tissues, HCQ 2 mg/ml or DXM 1 mg/ml topical with 2% carvacrol): effectively reduced
